These are literature values, as cited in PMC2837554 (ChemMedChem, 2010).

The target in one data set is aggregated Aβ. The settings on record: reported value.

`CN(C)c1ccc(/C=C/C2=CC(=C/C=C3C=CC(=[N+](C)C)C=C3)/O[B-](F)(F)O2)cc1` [CRANAD-2]: at Aβ aggregates, the Kd was 0.038 µM.
With `Cc1ccc2c(c1)sc(-c1ccc(N(C)C)cc1)[n+]2C` [ThT, Thioflavin T], on aggregated Aβ, the equilibrium dissociation constant (Kd) is 2 µM.
